Laboratory results published in patent US20180177749A1, “USE OF CYP EXPRESSION TO DIRECT THERAPEUTIC INTERVENTION IN CANCER” (REGENTS OF THE UNIVERSITY OF MINNESOTA, priority 2016, published 2018).

System: MCF-7 xenograft
Assay: RPPA of protein expression, MCF-7 xenograft endpoint analysis
Type: in vivo, nude mice
Conditions: 4 mg/kg/day vs. PBS
Experimental: Frozen xenograft tissue samples were embedded in OCT, and 8 μm sections were obtained using a cryostat. […] The resulting whole tissue lysates were boiled for 8 min at 100° C. and then printed onto a nitrocellulose slide (Avid, Grace Biolabs) along with a BSA protein concentration curve to estimate total protein concentration in each lysate. Total protein levels were assessed in each sample by staining with Sypro Ruby Protein Blot Stain (Invitrogen) according to manufacturer's instructions.
The total protein concentration in each sample was estimated by printing onto a nitrocellulose slide along with a BSA standard concentration curve, and total protein levels were assessed by staining with Sypro Ruby Protein Blot Stain (Invitrogen) according to manufacturer's instructions. Tissue lysates were diluted to 250 μg/ml in extraction buffer and stored at −80° C. prior to printing of arrays. RPPA printing and analysis of xenograft samples was conducted as previously described (Wulfkuhle et al., Clin Cancer Res. 2012; 18:6426-35). Antibody staining intensities were quantified using the MicroVigene v5 Software Package (Vigenetech). Signaling pathway activation was evaluated by staining the arrays with 156 antibodies against signaling endpoints, mainly phosphorylated and cleaved protein products. Before use for RPPA analysis, antibody specificity was confirmed by Western blot and analysis as previously described (Wulfkuhle et al., Clin Cancer Res. 2012; 18:6426-35).

[1] = *separate RPPA analysis, separate β actin probe

## CCCCCCNC(=N)NC(=N)NCc1ccccc1 [HBB, N1-hexyl-N5-benzyl-biguanide]
  fold change: 4EBP1 S65: 1.051
  fold change: 4EBP1 T37/46: 1.261
  fold change: 4EBP1 T70: 0.595
  fold change: A-Raf S299: 0.862
  fold change: AKT S473: 1.042
  fold change: AKT T308: 0.793
  fold change: ALK: 1.079
  fold change: ALK Y1604: 0.954
  fold change: AMPKalpha S485: 1.126
  fold change: AMPKbeta S108: 0.665
  fold change: ATF2 T69/71: 0.713
  fold change: ATM S1981: 1.034
  fold change: ATP CItrate Lyase S454: 1.000
  fold change: ATR S428: 0.810
  fold change: AXL: 0.566
  fold change: Acetyl-CoA Carboxylase S79: 0.927
  fold change: Actin beta: 1.000
  fold change: Aurora A T288/B T232/C T198: 0.646
  fold change: B-RAF: 1.130
  fold change: B-Raf S445: 0.764
  fold change: BAD: 2.424
  fold change: BAD S112: 0.833
  fold change: BAD S136: 0.958
  fold change: BCL-2: 0.825
  fold change: BIM: 0.727
  fold change: Bak: 0.789
  fold change: Bax: 0.807
  fold change: Bcl_xL: 0.909
  fold change: Beclin 1: 0.881
  fold change: CREB S133: 0.626
  fold change: Chk1 S345: 1.290
  fold change: Cl Caspase 3 D175: 1.109
  fold change: Cl Caspase 9 D315: 1.151
  fold change: Cl Caspase 9 D330: 1.244
  fold change: Cleaved PARP D214: 1.277
  fold change: Cofilin S3: 0.443
  fold change: CrkL Y207: 0.962
  fold change: Cyclin A: 1.779
  fold change: Cyclin B1 V152: 1.197
  fold change: Cyclin D1 (G124-326): 1.277
  fold change: Cyclin D1 T286: 0.611
  fold change: E-Cadherin: 0.669
  fold change: EGFR: 0.857
  fold change: EGFR Y992: 0.803
  fold change: EGFR Y1068: 1.089
  fold change: EGFR Y1148: 0.891
  fold change: EGFR Y1173: 0.954
  fold change: ER TOTAL: 1.687
  fold change: ER alpha S118: 0.964
  fold change: ERK 1-2 T202/Y204: 0.423
  fold change: ERK TOTAL: 0.791
  fold change: Elk S383: 1.402
  fold change: Ephrin A3 Y799/A4 Y799/A5 Y833: 1.149
  fold change: ErbB2/HER2 Y877: 0.951
  fold change: ErbB2/HER2 Y1248: 1.239
  fold change: ErbB3/HER3: 0.851
  fold change: ErbB3/HER3 Y1197: 1.223
  fold change: ErbB3/HER3 Y1289: 1.268
  fold change: FADD S194: 0.672
  fold change: FAK Y576/577: 1.021
  fold change: FKHR T24/FKHRL1 T32: 0.698
  fold change: FKHRL1 S253: 0.960
  fold change: FOXO1 S256: 0.854
  fold change: GRB2: 0.830
  fold change: GSK-3alpha/beta S21/9: 0.791
  fold change: HIF-1 alpha: 2.406
  fold change: HSP27 S82: 0.877
  fold change: HSP70: 1.453
  fold change: HSP90a T5/7: 0.945
  fold change: Heregulin: 20.774
  fold change: Histone H3 S28: 0.898
  fold change: IGF1R Y1135/36-IR Y1150/51: 1.101
  fold change: IGF-1R Y1131/IR Y1146: 1.019
  fold change: IGFBP7: 0.992
  fold change: IL6: 1.260
  fold change: IRS1: 1.014
  fold change: IRS-1 S612: 0.952
  fold change: IkappaB-alpha S32/36: 1.130
  fold change: Insulin Receptor Beta: 1.261
  fold change: Jak2 Y1007: 0.881
  fold change: KI67: 0.731
  fold change: LC3B: 1.097
  fold change: LIMK1 T508/LIMK2 T505: 0.795
  fold change: LKB1 S428: 1.269
  fold change: MARCKS S152/156: 1.071
  fold change: MCSFR Y723: 1.228
  fold change: MDM2 S166: 0.868
  fold change: MEK 1/2 S217/221: 0.770
  fold change: Met Y1234/1235: 1.033
  fold change: Musashi: 0.898
  fold change: NF-kappaB p65 S536: 0.817
  fold change: PAK1 S199/204-PAK2 S192/197: 1.221
  fold change: PAK1 T423/PAK2 T402: 1.028
  fold change: PDGFR alpha Y754: 1.144
  fold change: PDGFR beta: 0.705
  fold change: PDGFR beta Y716: 0.887
  fold change: PDK1 S241: 0.712
  fold change: PDL1: 34.857
  fold change: PKA C T197: 0.907
  fold change: PKC delta/theta S643/S676: 0.671
  fold change: PLK1 T210: 1.018
  fold change: PTEN: 0.726
  fold change: PTEN S380: 0.783
  fold change: PUMA: 0.919
  fold change: RAS TOTAL: 1.543
  fold change: Ras_GRF1: 1.021
  fold change: Rb S780: 0.674
  fold change: Ret Y905: 0.810
  fold change: Ros Y2274: 1.201
  fold change: S6 Ribosomal Protein S240/244: 0.817
  fold change: SAPK/JNK T183/Y185: 1.033
  fold change: SGK1 S78: 1.318
  fold change: SMAD2 S245/250/255: 0.760
  fold change: STAT3 S727: 1.040
  fold change: Shc Y317: 0.792
  fold change: Smad1 Ser463/465-Smad5 Ser463/465-Smad9 Ser465/467: 0.900
  fold change: Src Y527: 0.675
  fold change: Src family Y416: 0.471
  fold change: Stat 1 Y701: 0.937
  fold change: Stat3 Y705: 0.936
  fold change: Stat 5 Y694: 0.558
  fold change: TGF-beta: 0.952
  fold change: TNF alpha: 1.186
  fold change: Tuberin/TSC2 Y1571: 1.208
  fold change: VEGFR2 Y996: 0.828
  fold change: Vimentin: 0.896
  fold change: XIAP: 0.835
  fold change: c-Abl T735: 0.776
  fold change: c-Abl Y245: 0.846
  fold change: c-ErbB2/HER2: 1.938
  fold change: c-Kit Y703: 4.550
  fold change: c-Met TOTAL: 0.877
  fold change: c-Myc: 0.879
  fold change: c-Raf S338: 1.016
  fold change: eIF4G S1108: 0.791
  fold change: eNOS/NOS III S116: 0.902
  fold change: mTOR S2448: 1.034
  fold change: p27 Kip1: 0.925
  fold change: p27 T187: 0.685
  fold change: p38 MAP Kinase T180/Y182: 1.011
  fold change: p53: 0.997
  fold change: p53 S15: 0.990
  fold change: p70S6 Kinase: 0.674
  fold change: p70 S6 Kinase S371: 0.762
  fold change: p70 S6 Kinase T389: 0.773
  fold change: p70 S6 Kinase T412: 0.998
  fold change: p90RSK S380: 1.016
  fold change: p90RSK T359/S363: 0.884
  fold change: pYAP S127: 0.931
[1]
  fold change: AMPK T172*: 0.598
  fold change: AMPK total*: 1.69
  fold change: PKM2 Y105*: 2.13
  fold change: PKM2 total*: 1.01
